Measured values from patent US8557559B2, “Self-dying recombinant microorganism for measuring soil and water contamination” (priority 2010, dated 2013).

Experiments:
Type in all cases: cell-based
[1] = tested on: recombinant strain, Sphingomonas paucimobilis (SEQ ID NO. 1); assay: Verification of substrate specificity: fluorescence reaction of recombinant strain in inorganic medium (LIVE/DEAD BacLight staining, micro-plate reader); conditions: inorganic medium with pyruvate; about 50 mg/L through about 500 mg/L; FIG. 2
Procedure: Phenanthrene was added to an inorganic medium including pyruvate as a carbon source, up to phenanthrene concentrations of about 50 mg/L through about 500 mg/L, the recombinant strain was inoculated, and a sample was taken every 24-hour and stained using LIVE/DEAD BacLight bacterial viability kit (Molecular Probes, L7012) and a fluorescence reaction was measured by a micro-plate reader.
A reaction of the recombinant strain with respect to an inorganic medium including hexane and hexadecane that are aliphatic hydrocarbon having the equivalent concentration, hexane concentrations being about 50 mg/L through about 500 mg/L and hexadecane concentrations being about 50 mg/L through about 500 mg/L, and a reaction of the recombinant strain with respect to an inorganic medium including toluene that is a monoaromatic hydrocarbon, toluene concentrations being about 1 mg/L through about 50 mg/L, were respectively measured for comparison.
The LIVE/DEAD BacLight bacterial viability kit is a dying scheme that labels, using a DNA-binding dye, DNA of a live microorganism with green fluorescence and labels, using […], DNA of dead microorganism with red fluorescence and thus, indicates a viability of microorganisms.
The reaction of the recombinant strain was expressed by a relative fluorescence intensity FL/FL0, that is, a value obtained by dividing a fluorescence reaction value FL of a recombinant strain exposed to a target contaminant by a fluorescence reaction value FL0 of a recombinant strain that is not exposed to the target contaminant. The relative fluorescence intensity FL/FL0 expresses the reaction of the recombinant strain, which is based on a concentration of contaminant, with a rate of decreasing fluorescence and thus, an error rate may be reduced during a test, and a concentration of toxicity may be expressed with a standardized fluorescence intensity value.

[2] = tested on: recombinant strain, Sphingomonas paucimobilis (SEQ ID NO. 1); assay: Performance of recombinant strain in model soil (Ottawa sand), CLSM fluorescence quantified with ImageJ; conditions: model soil contaminated 50 mg/kg to 1000 mg/kg; FIG. 3
From the text: (§1) A confocal laser scanning microscope (CLSM) may measure a fluorescence reaction of the mixture of a soil sample and microorganisms to analyze phenanthrene in the soil sample. An image including measured green fluorescence and measured red fluorescence may be converted into a grayscale image after removing the measured red fluorescence from the image based on Adobe Photoshop CS4 (Adobe Systems, CA, USA). An integrated fluorescence intensity in an image of 254×254 pixels was quantified using a measure function of ImageJ program (ImageJ; Rasband, 1997-2009). The integrated fluorescence intensity may be a value obtained by dividing sum of illuminance of all the pixels by a number of the pixels in the image.
Ottawa sand was used as a model soil. The model soil was contaminated with phenanthrene up to concentrations from 50 mg/kg to 1000 mg/kg, an inorganic medium including pyruvate as a source of carbon was added, the inorganic medium of 10 mL per the model soil of 2 g, the recombinant strain was inoculated, and a sample was taken every 24-hour to measure a fluorescence response.
A fluorescence response was photographed by a CLSM to directly measure a mixture of the model soil, the liquid medium, and the recombinant strain, and the measured fluorescence reaction was quantified using an ImageJ program. […]

[3] = tested on: recombinant strain, Sphingomonas paucimobilis (SEQ ID NO. 1); assay: Performance of recombinant strain in real soil (M soil), CLSM fluorescence; conditions: 50 mg/kg to 1000 mg/kg, 24-hours, FIGS. 5 and 6
From the text: as §1
Phenanthrene was added to soil that had not been contaminated with phenanthrene up to concentrations from 50 mg/kg to 1000 mg/kg, an inorganic medium was added, the inorganic medium of 10 mL per soil of 2 g, the recombinant strain was inoculated and cultivated for 24-hours, and a reaction was measured in the same manner as Example 3.

Question: Which “response of the recombinant strain (relative fluorescence intensity FL/FL0)” value [1] does the source give for CCCCCCCCCCCCCCCC [hexadecane] here?
Answer: The value was “may not respond”.

Question: CCCCCC [hexane] was tested. Which “response of the recombinant strain (relative fluorescence intensity FL/FL0)” value [1] did it give?
Answer: Its value is “may not respond”.

Question: With c1ccc2c(c1)ccc1ccccc12 [phenanthrene] as the compound, how does the “response of the recombinant strain (relative fluorescence intensity FL/FL0)” value [1] read?
Answer: Its value is “death response”.

Question: What about the “response of the recombinant strain to phenanthrene in Ottawa sand” value [2] of the same compound?
Answer: Its value is “as phenanthrene concentrations increase, a number of live microorganisms decrease”.

Question: And the “reaction of the recombinant strain to phenanthrene in real soil” value [3]?
Answer: The value was “significantly sensitive to phenanthrene concentrations”.
